# Laboratory results reported in article PMC8600920 (Antiviral Research, 2021).
# How the values were obtained:
# HCoV-OC43 = HCoV-OC43 cytopathic effects; format: cell-based; conditions: Betacoronavirus 1, OC43, HCT-8, 120 h, read-out: Anti-HCoV-OC43 (EC50/μM)
# HCoV-NL63 = HCoV-NL63 cytopathic effects; format: cell-based; conditions: Human coronavirus NL63, LLC-MK2, 120 h, read-out: Anti-HCoV-NL63 (EC50/μM)
# in vitro = conditions: human
smiles,measurement,setting,value
CCC(CC)COC(=O)[C@H](C)N[P@](=O)(OC[C@H]1O[C@@](C#N)(c2ccc3c(N)ncnn23)[C@H](O)[C@@H]1O)Oc1ccccc1 [Remdesivir],EC50,HCoV-OC43,0.82 µM
same,EC50,HCoV-NL63,2.89 µM
same,CC50,in vitro,> 100000 nM
